Measured values as given in US8426420B2, “Heterocyclic pyrazole-carboxamidesas P2Y12 antagonists” (Sanofi, priority 2007, dated 2013).

Tests used:
[1] = tested on: human platelet rich plasma; test: Inhibition of human platelet aggregation, 96-well assay; assay type: cell-based; settings: Homo sapiens, Platelet, 20 min
Method in brief: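 ADP-induced aggregation read as 650 nm absorbance every minute for 20 min at 37 °C, with shaking between reads. PRP (~3×E8 platelets/ml, diluted with PPP, ACD-A blood from healthy volunteers) was exposed to compound for 5 min before adding a 40 μM ADP stock (15 μl into 150 μl).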

[2] = tested on: human platelet rich plasma; test: Inhibition of human platelet aggregation, "Born"-method using single cuvettes; assay type: cell-based; settings: 0.1 h, ADP-induced aggregation, 6 minutes
Method: Inhibition of Human Platelet Aggregation
Alternatively to a binding assay which measures a compound's ability to bind to the P2Y12 receptor, the effect on cellular function was also determined. This ability of the compound was evaluated in two platelet aggregation assays: in 96-well plates and with the “Born”-method using single cuvettes.
Whole blood was collected from healthy volunteers using 20 ml syringes containing 2 ml of buffered Citrate. The anticoagulated whole blood was transferred into 15 ml polypropylene conical tubes (10 ml per tube). The tubes were centrifuged for 15 minutes at 340×g at RT without using the centrifuge brake. This procedure leads to a pellet of cellular components and a supernatant of platelet rich plasma (PRP). The PRP layer was collected from each tube and pooled for each donor. To avoid carry over of cellular components following centrifugation, approximately 5 ml of PRP was left in the tube. The platelet concentration was determined using a Coulter Counter.
The 15 ml tubes containing the pellet of cellular components were centrifuged again for 10 minutes at 1940×g. This pelleted out most particulate blood constituents remaining, leaving a layer of Platelet Poor Plasma (PPP). The PPP was collected for each donor. The PRP layer, previously set aside, was diluted with PPP to a final concentration of approximately 3×E8 platelets/ml with the PPP.
The human platelet aggregation assay is performed in single use cuvettes using the platelet aggregation profiler (PAP-4 or -8, Bio/Data corporation).
In the assay cuvette 4 μl of test compound at 100× final concentration in DMSO is mixed with 392 μl fresh PRP and incubated for 2 minutes at 37° C. with 1.200 rpm stirring. Following that incubation period, 4 μl of 250 μM ADP is added to the reaction mix. This addition of ADP is sufficient to induce aggregation in the absence of an inhibitor. After that aggregation is measured over 6 minutes at 37° C. with 1.200 rpm stirring. Results of the assay are expressed as % inhibition, and are calculated using maximum aggregation (Tmax) or area under curve (AUC) of the absorbance over 6 minutes.
The IC50 data of the above described platelet aggregation assay using human platelet rich plasma for exemplary compounds of the present invention are shown in table 3.

human P2Y12 receptor = human P2Y12 receptor (Homo sapiens, UniProt Q9H244); test: Human P2Y12 recombinant cell membrane binding assay with 33P 2MeS-ADP; settings: competition against 33P 2MeS-ADP, membranes of CHO cells with recombinant human P2Y12 receptor
human P2Y12 receptor, sequence (Q9H244 whole entry): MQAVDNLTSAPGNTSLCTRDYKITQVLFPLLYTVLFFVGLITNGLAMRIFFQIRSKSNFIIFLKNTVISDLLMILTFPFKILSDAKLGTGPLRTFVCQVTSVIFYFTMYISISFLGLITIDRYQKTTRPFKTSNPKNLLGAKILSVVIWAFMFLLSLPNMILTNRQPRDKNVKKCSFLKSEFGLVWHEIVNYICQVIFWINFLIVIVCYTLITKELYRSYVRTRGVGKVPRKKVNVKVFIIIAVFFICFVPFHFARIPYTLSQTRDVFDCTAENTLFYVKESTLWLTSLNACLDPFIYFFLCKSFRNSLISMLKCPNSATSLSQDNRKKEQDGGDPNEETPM
Method in brief: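 Competition binding against radiolabeled 2MeS-ADP (1.61 nM as added) on membranes from recombinant human P2Y12 CHO cells, 20 min RT after 15 min compound preincubation, pH 7.4. Filtration then scintillation counting; compounds tested in triplicate from 10 μM final, five-fold dilutions, curve fit with plate-defined min/max.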

| IC50 [1] [nM] | IC50 [2] [nM] | IC50 (human P2Y12 receptor) [nM] | SMILES |
| --- | --- | --- | --- |
| 30 | 120 |  | CCCCNC(=O)[C@@H]1CCCN1C(=O)COc1cc(C(=O)N[C@@H](CCC(=O)O)C(=O)N2CCN(C(=O)OCC)CC2)nn1-c1ccccc1 [Example 11, 4-{(S)-4-Carboxy-2-[(5-{2-[(S)-2-butylcarbamoyl-pyrrolidin-1-yl]-2-oxo-ethoxy}-1-phenyl-1H-pyrazole-3-carbonyl)-amino]-butyryl}-piperazine-1-carboxylic acid ethyl ester] |
| 10 | 38 |  | CCOC(=O)N1CCN(C(=O)[C@H](CCC(=O)O)NC(=O)c2cc(OCC(=O)N3CCC[C@H]3C(=O)NC3CCCC3)n(-c3ccccc3)n2)CC1 [Example 13, 4-{(S)-4-Carboxy-2-[(5-{2-[(S)-2-cyclopentylcarbamoyl-pyrrolidin-1-yl]-2-oxo-ethoxy}-1-phenyl-1H-pyrazole-3-carbonyl)-amino]-butyryl}-piperazine-1-carboxylic acid ethyl ester] |
|  | 46 |  | CCOC(=O)N1CCN(C(=O)[C@H](CCC(=O)O)NC(=O)c2cc(OCC(=O)N3CCC[C@H]3C(=O)NCC3CC3)n(-c3ccccc3)n2)CC1 [Example 16, 4-{(S)-4-Carboxy-2-[(5-{2-[(S)-2-(cyclopropylmethyl-carbamoyl)-pyrrolidin-1-yl]-2-oxo-ethoxy}-1-phenyl-1H-pyrazole-3-carbonyl)-amino]-butyryl}-piperazine-1-carboxylic acid ethyl ester] |
| 110 | 950 |  | CCOC(=O)N1CCN(C(=O)[C@H](CCC(=O)O)NC(=O)c2cc(O[C@@H](C)C(=O)N3CCC[C@H]3C(=O)NC3CCC3)n(-c3ccccc3)n2)CC1 [Example 67, 4-[(S)-4-Carboxy-2-({5-[(S)-2-((S)-2-cyclobutylcarbamoyl-pyrrolidin-1-yl)-1-methyl-2-oxo-ethoxy]-1-phenyl-1H-pyrazole-3-carbonyl}-amino)-butyryl]-piperazine-1-carboxylic acid ethyl ester] |
|  | 220 |  | CCOC(=O)N1CCN(C(=O)[C@H](CC(O)CO)NC(=O)c2cc(OCC(=O)N3CCC[C@H]3C(=O)NC3CCC3)n(-c3ccccc3)n2)CC1 (stereo partly drawn) [Example 117, 4-[(S)-2-({5-[2-((S)-2-Cyclobutylcarbamoyl-pyrrolidin-1-yl)-2-oxo-ethoxy]-1-phenyl-1H-pyrazole-3-carbonyl}-amino)-4,5-dihydroxy-pentanoyl]-piperazine-1-carboxylic acid ethyl ester] |
| 20 | 13 |  | CCCCOC(=O)N1CCN(C(=O)[C@H](CCC(=O)O)NC(=O)c2cc(OCC(=O)N3CCC[C@H]3C(=O)NC3CCC3)n(-c3ccccc3)n2)CC1 [Example 119, 4-[(S)-4-Carboxy-2-({5-[2-((S)-2-cyclobutylcarbamoyl-pyrrolidin-1-yl)-2-oxo-ethoxy]-1-phenyl-1H-pyrazole-3-carbonyl}-amino)-butyryl]-piperazine-1-carboxylic acid butyl ester] |
| 50 | 79 |  | CCCCOC(=O)N1CCN(C(=O)[C@H](CCc2nn[nH]n2)NC(=O)c2cc(OCC(=O)N3CCC[C@H]3C(=O)NC3CCC3)n(-c3ccccc3)n2)CC1 [Example 126, 4-[(S)-2-({5-[2-((S)-2-Cyclobutylcarbamoyl-pyrrolidin-1-yl)-2-oxo-ethoxy]-1-phenyl-1H-pyrazole-3-carbonyl}-amino)-4-(2H-tetrazol-5-yl)-butyryl]-piperazine-1-carboxylic acid butyl ester] |
| 860 | 940 |  | CCOC(=O)N1CCN(C(=O)[C@H](CCC(=O)O)NC(=O)c2cc(OCC(=O)N3CCC[C@H]3c3cc(C)no3)n(-c3ccccc3)n2)CC1 [Example 173, 4-{(S)-4-Carboxy-2-[(5-{2-[(S)-2-(3-methyl-isoxazol-5-yl)-pyrrolidin-1-yl]-2-oxo-ethoxy}-1-phenyl-1H-pyrazole-3-carbonyl)-amino]-butyryl}-piperazine-1-carboxylic acid ethyl ester] |
| 760 | 2220 |  | CCOC(=O)N1CCN(C(=O)[C@H](CCC(=O)O)NC(=O)c2cc(OCC(=O)N3CCC[C@H]3c3nc(C)no3)n(-c3ccccc3)n2)CC1 [Example 174, 4-{(S)-4-Carboxy-2-[(5-{2-[(S)-2-(3-methyl-[1,2,4]oxadiazol-5-yl)-pyrrolidin-1-yl]-2-oxo-ethoxy}-1-phenyl-1H-pyrazole-3-carbonyl)-amino]-butyryl}-piperazine-1-carboxylic acid ethyl ester] |
| 90 | 100 |  | CCOC(=O)N1CCN(C(=O)CNC(=O)c2cc(OCC(=O)N3CCC[C@H]3C(=O)NC3CCC3)n(-c3ccccc3)n2)CC1 [Example 181, 4-[2-({5-[2-((S)-2-Cyclobutylcarbamoyl-pyrrolidin-1-yl)-2-oxo-ethoxy]-1-phenyl-1H-pyrazole-3-carbonyl}-amino)-acetyl]-piperazine-1-carboxylic acid ethyl ester] |
|  | 90 |  | CCOC(=O)N1CCN(C(=O)[C@H](C)NC(=O)c2cc(OCC(=O)N3CCC[C@H]3C(=O)NC3CCC3)n(-c3ccccc3)n2)CC1 [Example 185, 4-[(S)-2-({5-[2-((S)-2-Cyclobutylcarbamoyl-pyrrolidin-1-yl)-2-oxo-ethoxy]-1-phenyl-1H-pyrazole-3-carbonyl}-amino)-propionyl]-piperazine-1-carboxylic acid ethyl ester] |
| 130 | 190 |  | O=C(NCC(=O)N1CCN(C(=O)OCCC(F)(F)F)CC1)c1cc(OCC(=O)N2CCC[C@H]2C(=O)NC2CCC2)n(-c2ccccc2)n1 [Example 256, 4-[2-({5-[2-((S)-2-Cyclobutylcarbamoyl-pyrrolidin-1-yl)-2-oxo-ethoxy]-1-phenyl-1H-pyrazole-3-carbonyl}-amino)-acetyl]-piperazine-1-carboxylic acid 3,3,3-trifluoro-propyl ester] |
| 60 |  | 18 | CCOC(=O)N1CCN(C(=O)[C@H](CF)NC(=O)c2cc(OCC(=O)N3CCC[C@H]3C(=O)NC3CCC3)n(-c3ccccc3)n2)CC1 [Example 261, 4-[(R)-2-({5-[2-((S)-2-Cyclobutylcarbamoyl-pyrrolidin-1-yl)-2-oxo-ethoxy]-1-phenyl-1H-pyrazole-3-carbonyl}-amino)-3-fluoro-propionyl]-piperazine-1-carboxylic acid ethyl ester] |
| 30 | 40 |  | CCCCOC(=O)N1CCN(C(=O)[C@H](CF)NC(=O)c2cc(OCC(=O)N3CCC[C@H]3C(=O)NC3CCC3)n(-c3ccccc3)n2)CC1 [Example 262, 4-[(R)-2-({5-[2-((S)-2-Cyclobutylcarbamoyl-pyrrolidin-1-yl)-2-oxo-ethoxy]-1-phenyl-1H-pyrazole-3-carbonyl}-amino)-3-fluoro-propionyl]-piperazine-1-carboxylic acid butyl ester] |
| 20 |  | 99 | O=C(NCC(=O)N1CCN(C(=O)OC2CCCC2)CC1)c1cc(OCC(=O)N2CCC[C@H]2C(=O)NC2CCC2)n(-c2ccccc2)n1 [Example 268, 4-[2-({5-[2-((S)-2-Cyclobutylcarbamoyl-pyrrolidin-1-yl)-2-oxo-ethoxy]-1-phenyl-1H-pyrazole-3-carbonyl}-amino)-acetyl]-piperazine-1-carboxylic acid cyclopentyl ester] |
| 17 |  | 40 | CCCCOC(=O)N1CCN(C(=O)CNC(=O)c2cc(OCC(=O)N3C[C@H](O)C[C@H]3C(=O)NC3CCC3)n(-c3ccccc3)n2)CC1 [Example 270, 4-[2-({5-[2-((2S,4R)-2-Cyclobutylcarbamoyl-4-hydroxy-pyrrolidin-1-yl)-2-oxo-ethoxy]-1-phenyl-1H-pyrazole-3-carbonyl}-amino)-acetyl]-piperazine-1-carboxylic acid butyl ester] |
| 380 |  | 160 | CCCOC(=O)N1CCN(C(=O)[C@H](CC(F)(F)F)NC(=O)c2cc(OCC(=O)N3CCC[C@H]3C(=O)NC3CCC3)n(-c3ccccc3)n2)CC1 [Example 273, 4-[(S)-2-({5-[2-((S)-2-Cyclobutylcarbamoyl-pyrrolidin-1-yl)-2-oxo-ethoxy]-1-phenyl-1H-pyrazole-3-carbonyl}-amino)-4,4,4-trifluoro-butyryl]-piperazine-1-carboxylic acid propyl ester] |
